Measurements: patent US5654427A, “Indolocarbazole derivatives to treat a pathological condition of the prostate” (Kyowa Hakko Kogyo Co., Ltd., priority 1995, dated 1997)

What was measured:
prostate glands = experiment: inhibition of prostate growth in sexually immature mice (weight of prostate glands); format: in vivo; conditions: for Ventral Prostate weight / Dorsal Prostate weight / Coagulat-ing Glands weight / Seminal Vesicles weight: Table 6; for Ventral Prostate weight: TEPBS 14.0 ± 0.8; for Dorsal Prostate weight: TEPBS 14.6 ± 1.4; for Coagulat-ing Glands weight: TEPBS 29.6 ± 2.0; for Seminal Vesicles weight: TEPBS 71.4 ± 2.4
Description: (§1) The following animal model can be used to test the efficacy of a functional derivative for treatment of a proliferative prostate condition. Sexually immature male mice of 15-20 g each (Charles River Laboratories, Raleigh, N.C.) were used in the following in vivo study. The mice were allowed at least 3 days after purchase to acclimate before being used in any experiments.
(§2) Each test group contained 12 mice. […] At the end of the 21 day dosing period the mice were sacrificed and whole body blood, dorsal prostate, ventral prostate, coagulating glands, seminal vesicles, heart, liver, stomach, lung, kidneys and testes were collected separately and weighed.

[1] = system: Dunning R-3327 AT-2.1 prostate tumor; experiment: inhibition of growth of Dunning R-3327 AT-2.1 prostate tumor in adult male Copenhagen rats; format: in vivo, rat; conditions: 10 mg/kg/day s.c.
Description: The AT-2 tumor is a highly anaplastic cell line derived from the original slow-growing androgen-dependent Dunning R-3327 H rat prostate tumor (Issacs et al., Prostate 9:261-281, 1986). The AT-2 tumor model has been used to characterize other potential anti-prostatic cancer agents including linomide (Ichikawa et al., Cancer Research 52:3022-3028, 1992) and suramin (Morton et al., Prostate 17:327-336, 1990) which is undergoing evaluation in clinical trials for androgen-independentprostate cancer (Eisenberger et al., J. Natl. Can. Inst. 85: 611-621, 1993).
Experimental Protocol: Twenty-four inbred male Copenhagen rats were inoculated subcutaneously in the flank with 1×10^6 viable AT-2.1 tumor cells. All animals were allowed to develop tumors of approximately 2.7 cm^3 in size (approximately 14 days) before being randomized into three groups of 8 animals each. Group 1 received daily subcutaneous injections of vehicle alone (1 ml/kg body weight). […] All animals had their tumor sizes evaluated for a period of 16 days. Tumor volume was calculated using the formula (1×w^2)×0.5.

Tsu-Pr1 = experiment: growth inhibition of Tsu-Pr1 prostate cancer cells (calcein fluorescence); format: cell-based; conditions: Homo sapiens, TSU-Pr1, 72 h; 3 days incubation; read-out: Tsu-Pr1 IC50
Description: (§3) Throughout the experiment the Tsu-Pr1 and Du-Pro1 cells were maintained in RPMI 1640 medium (GIBCO) containing 10% fetal bovine serum (Hyclone), 2 mM glutamine, 100 U/ml penicillin, and 100 μg/ml streptomycin. The PC-3 cells were maintained in Ham's F12K medium (Irvine Scientific) containing 10% fetal bovine serum (Hyclone), 2 mM glutamine, 100 U/ml penicillin, and 100 μg/ml streptomycin. All cell lines were maintained at 37° C. in a humidified atmosphere containing 5% CO2. The DU-145 cells were maintained in minimal essential medium (Gibco), containing 10% fetal bovine serum (Hyclone), 2 mM glutamine, and no antibiotics.
(§4) Tests for growth inhibition by the candidate compounds were conducted by the following procedure. In each well of a 96-well plate (Falcon) were placed 2,500 cells in 0.1 ml of medium. The cultures were incubated overnight after which a 0.1 ml aliquot of culture medium was added to each well. […] Other control wells received medium without any K-252a derivative compounds. Incubation was continued for three days. On day three the number of cells in each well was measured using a calcein fluorescence assay (Bozyczko-Coyne et al. J. Neurosci. Meth. 50, 205-216 (1993)).
(§5) Calcein AM (Molecular Probes, Eugene, Oreg.), an analog of the viable dye fluorescein diacetate, is taken up by cells and cleaved intracellularly to fluorescent salts that are retained by intact membranes of viable cells. This method thus provides a reliable and quantitative measurement of cell survival. Calcein AM was diluted 2× in Dulbeccos phosphate buffered saline (D-PBS) to 2× the final assay concentration (6 μM) and 100 μl was added to culture wells containing 100 μl of medium. The plates were then incubated for 1 hour at 37° C. Cells were then washed 4 times with D-PBS to remove excess calcein not taken up by cells. The plate was read using a Millipore plate reading fluorimeter (Cytofluor 2350) at emission=485 nm and excitation=538 nm. After subtraction of blank values (wells containing medium but no cells), relative fluorescent values reflect a quantitative measurement of cell survival.
(§6) The number of cells in the wells containing functional derivatives was compared to the number of cells in the control wells. The concentration which inhibited cell growth by 50% was calculated and is referred to as the "IC50 ".

DU-145 = experiment: growth inhibition of DU-145 prostate cancer cells (calcein fluorescence); format: cell-based; conditions: Homo sapiens, DU-145, 72 h; 3 days incubation; read-out: DU-145 C50
Description: as §3, §4, §5, §6

[2] = body weight and weight of peripheral organs in sexually immature mice; conditions: for Body Weight: Table 6, TEPBS 32.0 ± 0.6; for Heart weight / Testes weight / Stomach weight / Lung weight / Kidney weight / Liver weight: Table 7; for Heart weight: TEPBS 170 ± 10; for Testes weight: TEPBS 206 ± 8; for Stomach weight: TEPBS 272 ± 14; for Lung weight: TEPBS 280 ± 15; for Kidney weight: TEPBS 589 ± 34; for Liver weight: TEPBS 2004 ± 69
Description: as §1, §2

trkA = biological target: T1, trkA (Rattus norvegicus, UniProt P35739); experiment: inhibition of NGF-stimulated trk autophosphorylation (tyrosine phosphorylation) in PC12 cells, anti-phosphotyrosine Western blot; format: cell-based; conditions: 100 nM compound, NGF 50 ng/ml; further: key: +: Inhibited phosphorylation; -: Did not inhibit phosphorylation
T1 construct: are rat pheochromocytoma cells that bear trkA; host or cells: PC12 rat pheochromocytoma cells
T1 sequence (P35739 33-799): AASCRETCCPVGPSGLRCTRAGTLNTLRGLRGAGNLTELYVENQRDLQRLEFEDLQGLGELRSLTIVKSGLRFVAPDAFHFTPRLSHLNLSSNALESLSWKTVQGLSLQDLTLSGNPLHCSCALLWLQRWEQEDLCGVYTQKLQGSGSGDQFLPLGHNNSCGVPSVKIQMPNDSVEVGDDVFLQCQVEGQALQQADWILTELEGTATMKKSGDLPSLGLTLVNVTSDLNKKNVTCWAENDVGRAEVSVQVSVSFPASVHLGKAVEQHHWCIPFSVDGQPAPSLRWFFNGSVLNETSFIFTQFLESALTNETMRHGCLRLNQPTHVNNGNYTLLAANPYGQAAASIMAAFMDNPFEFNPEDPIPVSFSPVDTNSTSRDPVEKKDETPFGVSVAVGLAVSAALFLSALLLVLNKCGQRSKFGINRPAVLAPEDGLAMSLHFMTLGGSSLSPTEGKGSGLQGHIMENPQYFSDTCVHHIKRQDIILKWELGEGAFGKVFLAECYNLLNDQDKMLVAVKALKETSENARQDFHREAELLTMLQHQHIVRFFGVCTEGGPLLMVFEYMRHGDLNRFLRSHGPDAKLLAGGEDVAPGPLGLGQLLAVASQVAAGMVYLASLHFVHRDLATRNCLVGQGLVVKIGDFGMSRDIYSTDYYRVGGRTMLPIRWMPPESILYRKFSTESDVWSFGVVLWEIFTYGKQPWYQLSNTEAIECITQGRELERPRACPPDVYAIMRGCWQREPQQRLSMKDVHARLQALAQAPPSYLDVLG

For `COC1(CO)CC2OC1(C)n1c3ccccc3c3c4c(c5c6ccccc6n2c5c31)C(=O)NC4` (stereo not drawn) [Compound I-19], which “weights of ventral prostate, dorsal prostate, seminal vesicles, and coagulating glands, in words” value (prostate glands; 1 mg/kg) is on record?
Its value is “significantly reduced the weights of ventral prostate, dorsal prostate, seminal vesicles, and coagulating glands”.

What about the “weights of ventral prostate, dorsal prostate, seminal vesicles, and coagulating glands, in words” value (prostate glands; 10 mg/kg) of the same compound?
Its value is “significantly reduced the weights of ventral prostate, dorsal prostate, seminal vesicles, and coagulating glands”.

What about the “Ventral Prostate weight” value (prostate glands; 1 mg/kg) of the same compound?
The value was 11.0 ± 0.9 mg.

What about the “Dorsal Prostate weight” value (prostate glands; 1 mg/kg) of the same compound?
The value was 10.4 ± 0.9 mg.

And the “Coagulat-ing Glands weight” value (prostate glands; 1 mg/kg)?
The value was 24.6 ± 1.4 mg.

What about the “Seminal Vesicles weight” value (prostate glands; 1 mg/kg) of the same compound?
Its value is 60.0 ± 2.2 mg.

What about the “Ventral Prostate weight” value (prostate glands; 10 mg/kg) of the same compound?
Its value is 10.5 ± 0.6 mg.

What about the “Dorsal Prostate weight” value (prostate glands; 10 mg/kg) of the same compound?
The value was 7.2 ± 0.8 mg.

And the “Coagulat-ing Glands weight” value (prostate glands; 10 mg/kg)?
The value was 23.6 ± 0.8 mg.

What about the “Seminal Vesicles weight” value (prostate glands; 10 mg/kg) of the same compound?
Its value is 52.0 ± 2.0 mg.

What about the “inhibiting growth of AT-2.1 tumors” value ([1]; approximately) of the same compound?
The value was 50-60%.

What about the “Tumor volume Day 0” value ([1]; vehicle 2.73 ± 0.50) of the same compound?
Its value is 2.62 ± 0.53 cm^3.

What about the “Tumor volume Day 3” value ([1]; vehicle 6.66 ± 1.48) of the same compound?
Its value is 5.52 ± 1.10 cm^3.

What about the “Tumor volume Day 8” value ([1]; vehicle 21.0 ± 3.0) of the same compound?
Its value is 11.3 ± 1.8 cm^3.

What about the “Tumor volume Day 13” value ([1]; vehicle 37.3 ± 4.0) of the same compound?
Its value is 22.4 ± 2.7 cm^3.

And the “Tumor volume Day 16” value ([1]; vehicle 58.7 ± 5.0)?
The value was 28.4 ± 5.1 cm^3.

What about the IC50 (Tsu-Pr1) of the same compound?
The IC50 was 70 nM.

What about the IC50 (DU-145) of the same compound?
Its IC50 is 110 nM.

What about the “Body Weight” value ([2]; 1 mg/kg) of the same compound?
The value was 31.9 ± 0.8 g.

What about the “Body Weight” value ([2]; 10 mg/kg) of the same compound?
The value was 31.2 ± 0.5 g.

And the Heart weight ([2]; 1 mg/kg)?
Its Heart weight is 160 ± 20 mg.

What about the Testes weight ([2]; 1 mg/kg) of the same compound?
The Testes weight was 205 ± 7 mg.

What about the Stomach weight ([2]; 1 mg/kg) of the same compound?
Its Stomach weight is 252 ± 12 mg.

And the Lung weight ([2]; 1 mg/kg)?
Its Lung weight is 323 ± 16 mg.

And the Kidney weight ([2]; 1 mg/kg)?
The Kidney weight was 467 ± 18 mg.

What about the Liver weight ([2]; 1 mg/kg) of the same compound?
The Liver weight was 1968 ± 58 mg.

What about the Heart weight ([2]; 10 mg/kg) of the same compound?
Its Heart weight is 166 ± 8 mg.

And the Testes weight ([2]; 10 mg/kg)?
Its Testes weight is 208 ± 8 mg.

And the Stomach weight ([2]; 10 mg/kg)?
The Stomach weight was 242 ± 11 mg.

What about the Lung weight ([2]; 10 mg/kg) of the same compound?
Its Lung weight is 276 ± 18 mg.

And the Kidney weight ([2]; 10 mg/kg)?
Its Kidney weight is 563 ± 17 mg.

What about the Liver weight ([2]; 10 mg/kg) of the same compound?
Its Liver weight is 1933 ± 70 mg.

And the “trk 100 nM (inhibition of phosphorylation)” value (trkA)?
Its value is “+”.
